Source: patent publication US20260083865A1, “PROSTATE SPECIFIC MEMBRANE ANTIGEN (PSMA) LIGANDS AND USE THEREOF” (priority 2022, published 2026)
Like-named read-outs stand apart in the source and are kept apart here. Numbered stars: 1 amine (or outer) side, 2 acyl side, 3 side chain; on linkers, the order of the positions; unused ones are H or OH. Bridge positions count the residues as written; N and C are the ends. Square brackets hold non-standard residues; d marks the D form. Peptide text beside a SMILES is read from it. * marks the point of attachment. TtdsdLys(DOTA)NH2 = NC(=O)[C@@H](CCCCNC(=O)CN1CCN(CC(=O)O)CCN(CC(=O)O)CCN(CC(=O)O)CC1)NC(=O)CCC(=O)NCCCOCCOCCOCCCN*; Acetyl(1-DOTA-4-piperidyl) = O=C(O)CN1CCN(CC(=O)O)CCN(CC(=O)N2CCC(CC(=O)*)CC2)CCN(CC(=O)O)CC1; X3 = O=C(O)CN1CCN(CC(=O)O)CCN(CC(=O)NCCCOCCOCCOCCCN*)CCN(CC(=O)O)CC1; DOTA = O=C(O)CN1CCN(CC(=O)O)CCN(CC(=O)*)CCN(CC(=O)O)CC1; Trp(5-Cl) = N[C@@H](Cc1c[nH]c2ccc(Cl)cc12)C(=O)O; Phe(4-Cl) = N[C@@H](Cc1ccc(Cl)cc1)C(=O)O; X1 = O=C(CC1CCN([*:1])CC1)[*:2]; Cit = NC(=O)NCCC[C@H](N)C(=O)O; NMeK = CN[C@@H](CCCCN)C(=O)O; Suc = O=C(CCC(=O)[*:2])[*:1]; Tle = CC(C)(C)[C@H](N)C(=O)O; 4Amb = NCc1ccc(C(=O)O)cc1; 4Abz = Nc1ccc(C(=O)O)cc1; Hexanoyl = CCCCCC(=O)*; Aib = CC(C)(N)C(=O)O; CO = O=C([*:1])[*:2]; βAla = NCCC(=O)O; NHBu = CCCCN*

Tests used:
[1] = target: T1, PSMA-expressing C4-2 cells (Homo sapiens, UniProt Q04609); experiment: FACS binding assay (competition with 50 nM PSM-0183); conditions: read-out: pIC50 [C4-2] CAT (converted)
T1 construct: PSMA-expressing C4-2 cells (ATCC, Cat. No. CRL-3314) were cultured in RPMI-1640; host or cells: C4-2 cells
Summary of the method: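 Competition format: fluorescent tracer PSM-0183 (50 nM) displaced from PSMA on C4-2 cells by a test compound titration over 1 h at 4 °C. Bound tracer was quantified as flow-cytometric AF488 median fluorescence after washing. Four-parameter logistic fits of MFI data gave IC50 and pIC50.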

[2] = target: T2, Fc-fusion protein of human PSMA (hPSMA-Fc) (Homo sapiens, UniProt Q04609); experiment: Surface plasmon resonance assay (Biacore T200, single cycle kinetic); type: binding; conditions: hPSMA-Fc, 25° C., read-out: pKD CAT (converted)
T2 construct: purchased Acro Biosystems PSA-H5264
Summary of the method: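 KD, expressed as pKD, came from 1:1 Langmuir fits of reference- and buffer-blank-subtracted SPR data. The runs were single-cycle kinetics at 25° C in HBST/0.1% DMSO over human PSMA-Fc, captured to ~1000 RU on a peptide-coated CM5 surface and regenerated with 10 mM glycine pH 1.5.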

[3] = pIC50 category of FACS binding, C4-2 cells
[4] = pKD category for PSMA SPR activity assay
[5] = FACS binding, C4-2 cells, competition with 50 nM PSM-0183, category
[6] = SPR, single cycle kinetic, category
[7] = FACS binding, PSMA-expressing C4-2 cells, pIC50 category

T2 sequence (Q04609 44-750 limits assumed): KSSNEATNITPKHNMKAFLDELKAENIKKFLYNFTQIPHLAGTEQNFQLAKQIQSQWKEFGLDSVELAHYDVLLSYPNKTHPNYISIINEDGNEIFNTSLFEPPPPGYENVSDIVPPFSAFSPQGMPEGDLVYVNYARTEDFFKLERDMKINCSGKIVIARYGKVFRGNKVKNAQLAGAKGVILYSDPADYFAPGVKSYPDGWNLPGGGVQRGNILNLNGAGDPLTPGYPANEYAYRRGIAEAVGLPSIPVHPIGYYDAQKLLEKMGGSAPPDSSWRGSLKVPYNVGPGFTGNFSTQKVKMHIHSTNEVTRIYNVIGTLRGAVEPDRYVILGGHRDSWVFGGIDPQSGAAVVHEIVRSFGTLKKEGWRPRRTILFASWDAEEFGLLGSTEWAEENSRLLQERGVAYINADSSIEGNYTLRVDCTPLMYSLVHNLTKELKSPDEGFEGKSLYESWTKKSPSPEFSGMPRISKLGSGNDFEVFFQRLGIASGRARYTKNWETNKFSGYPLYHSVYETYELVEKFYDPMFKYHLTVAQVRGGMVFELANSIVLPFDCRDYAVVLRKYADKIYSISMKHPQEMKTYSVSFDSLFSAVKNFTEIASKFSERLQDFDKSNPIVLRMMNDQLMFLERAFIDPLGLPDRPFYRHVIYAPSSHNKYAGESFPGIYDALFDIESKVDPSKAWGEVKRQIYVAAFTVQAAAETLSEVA
T1 sequence (Q04609 whole entry): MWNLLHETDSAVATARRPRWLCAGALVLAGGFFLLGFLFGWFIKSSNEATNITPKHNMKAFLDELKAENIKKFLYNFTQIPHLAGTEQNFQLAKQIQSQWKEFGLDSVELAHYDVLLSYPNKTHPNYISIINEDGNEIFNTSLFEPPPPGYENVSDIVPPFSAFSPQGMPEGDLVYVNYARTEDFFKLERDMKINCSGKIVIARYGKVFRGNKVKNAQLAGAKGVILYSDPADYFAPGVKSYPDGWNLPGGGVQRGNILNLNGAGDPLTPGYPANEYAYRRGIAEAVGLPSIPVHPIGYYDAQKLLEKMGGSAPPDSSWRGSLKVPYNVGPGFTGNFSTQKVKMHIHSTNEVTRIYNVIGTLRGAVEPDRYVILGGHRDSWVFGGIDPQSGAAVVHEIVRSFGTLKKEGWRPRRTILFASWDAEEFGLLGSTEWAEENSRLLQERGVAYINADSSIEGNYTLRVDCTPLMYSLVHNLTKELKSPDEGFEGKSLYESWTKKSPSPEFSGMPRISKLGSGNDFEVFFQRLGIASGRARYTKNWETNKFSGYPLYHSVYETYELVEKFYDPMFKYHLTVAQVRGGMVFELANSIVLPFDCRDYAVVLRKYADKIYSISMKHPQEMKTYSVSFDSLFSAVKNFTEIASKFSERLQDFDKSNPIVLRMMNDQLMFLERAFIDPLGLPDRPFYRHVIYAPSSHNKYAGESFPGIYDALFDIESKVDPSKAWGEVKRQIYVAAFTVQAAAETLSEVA

IC50 [1, 3] [nM] | Kd [2, 4] [nM] | SMILES | further results
< 200 | < 12.6 | CCCCCC(=O)N[C@H](C(=O)NC(C)(C)C(=O)N[C@@H](Cc1ccccc1)C(=O)N[C@H]1CSSC[C@@H](C(=O)N[C@H](C(=O)N[C@H](C(=O)N[C@@H](CC(=O)O)C(=O)NCCCOCCOCCOCCCNC(=O)CCC(=O)N[C@H](CCCCNC(=O)CN2CCN(CC(=O)O)CCN(CC(=O)O)CCN(CC(=O)O)CC2)C(N)=O)[C@@H](C)O)C(C)(C)C)NC(=O)[C@H](CC(N)=O)NC(=O)[C@H](C)NC(=O)[C@H](CCCNC(=N)N)NC(=O)[C@H](CCCCN)NC1=O)[C@@H](C)O [PSM-0502, Hex-Thr-Aib-Phe-[Cys-Lys-Arg-Ala-Asn-Cys]-Tle-Thr-Asp-Ttds-lys(DOTA)-NH2] (Hexanoyl-T[Aib]FCKRANC[Tle]TD-{TtdsdLys(DOTA)NH2}; disulfide 4-9) | 
 |  | CC(=O)N[C@H](C(=O)NC(C)(C)C(=O)N[C@@H](Cc1ccccc1)C(=O)N[C@H]1CSSC[C@@H](C(=O)N[C@H](C(=O)N[C@@H](CCC(=O)O)C(N)=O)C(C)(C)C)NC(=O)[C@H](CC(N)=O)NC(=O)C(C)(C)NC(=O)[C@H](CCCNC(=N)N)NC(=O)[C@H](CCCCN)NC1=O)[C@@H](C)O [PSM-0262, Ac-Thr-Aib-Phe-[Cys-Lys-Arg-Aib-Asn-Cys]-Tle-Glu-NH2] (Ac-T[Aib]FCKR[Aib]NC[Tle]E-NH2; disulfide 4-9) | IC50 [1, 5]: < 200 nM; Kd [2, 6]: < 12.6 nM
 |  | C[C@@H](O)[C@H](NC(=O)[C@@H](NC(=O)[C@@H]1CSSC[C@H](NC(=O)[C@H](Cc2ccc(Cl)cc2)NC(=O)C(C)(C)NC(=O)CCNC(=O)CN2CCN(CC(=O)O)CCN(CC(=O)O)CCN(CC(=O)O)CC2)C(=O)N[C@@H](CCCCN)C(=O)N[C@@H](CCCNC(=N)N)C(=O)NC(C)(C)C(=O)N[C@@H](CC(N)=O)C(=O)N1)C(C)(C)C)C(N)=O [PSM-0352, DOTA-Bal-Aib-Pcf-[Cys-Lys-Arg-Aib-Asn-Cys]-Tle-Thr-NH2] ({DOTA-βAla}-[Aib][Phe(4-Cl)]CKR[Aib]NC[Tle]T-NH2; disulfide 3-8) | IC50 [1, 7]: < 200 nM; Kd ([2]; PSMA SPR assay, pKD category): < 12.6 nM
 |  | C[C@@H](O)[C@H](NC(=O)[C@@H](NC(=O)[C@@H]1CSSC[C@H](NC(=O)[C@H](Cc2ccccc2)NC(=O)C(C)(C)NC(=O)c2ccc(CNC(=O)CN3CCN(CC(=O)O)CCN(CC(=O)O)CCN(CC(=O)O)CC3)cc2)C(=O)N[C@@H](CCCCN)C(=O)N[C@@H](CCCNC(=N)N)C(=O)NC(C)(C)C(=O)N[C@@H](CC(N)=O)C(=O)N1)C(C)(C)C)C(N)=O [PSM-0270, DOTA-Pamb-Aib-Phe-[Cys-Lys-Arg-Aib-Asn-Cys]-Tle-Thr-NH2] ({DOTA-4Amb}-[Aib]FCKR[Aib]NC[Tle]T-NH2; disulfide 3-8) | IC50 [1, 7]: < 200 nM; Kd ([2]; PSMA SPR assay, pKD category): < 12.6 nM
< 200 | < 12.6 | CCCCNC(=O)N[C@H](C(=O)NC(C)(C)C(=O)N[C@@H](Cc1ccc(Cl)cc1)C(=O)N[C@H]1CSSC[C@@H](C(=O)N[C@H](C(=O)N[C@H](C(=O)N[C@H](CCCCNC(=O)CC2CCN(C(=O)CN3CCN(CC(=O)O)CCN(CC(=O)O)CCN(CC(=O)O)CC3)CC2)C(N)=O)[C@@H](C)O)C(C)(C)C)NC(=O)[C@H](CC(N)=O)NC(=O)C(C)(C)NC(=O)[C@H](CCCNC(=N)N)NC(=O)[C@H](CCCCN)NC1=O)[C@@H](C)O [PSM-0452, nBuCAyl-Thr-Aib-Pcf-[Cys-Lys-Arg-Aib-Asn-Cys]-Tle-Thr-lys (DOTA-Cmp)-NH2] ({NHBu-CO}-T[Aib][Phe(4-Cl)]CKR[Aib]NC[Tle]T[dK](Acetyl(1-DOTA-4-piperidyl))-NH2; disulfide 4-9) | 
< 200 | < 12.6 | CC(=O)N[C@H](C(=O)NC(C)(C)C(=O)N[C@@H](Cc1ccc(Cl)cc1)C(=O)N[C@H]1CSSC[C@@H](C(=O)N[C@H](C(N)=O)C(C)(C)C)NC(=O)[C@H](CC(N)=O)NC(=O)C(C)(C)NC(=O)[C@H](CCCNC(=N)N)NC(=O)[C@H](CCCCN)NC1=O)[C@@H](C)O [PSM-0367, Ac-Thr-Aib-Pcf-[Cys-Lys-Arg-Aib-Asn-Cys]-Tle-NH2] (Ac-T[Aib][Phe(4-Cl)]CKR[Aib]NC[Tle]-NH2; disulfide 4-9) | 
 |  | C[C@@H]1NC(=O)[C@H](CCCNC(=N)N)NC(=O)[C@H](CCCCN)NC(=O)[C@@H](NC(=O)[C@H](Cc2ccccc2)NC(=O)[C@H](C)NC(=O)[C@@H](NC(=O)CCC(=O)NCCCOCCOCCOCCCNC(=O)CN2CCN(CC(=O)O)CCN(CC(=O)O)CCN(CC(=O)O)CC2)[C@@H](C)O)CSSC[C@@H](C(N)=O)NC(=O)[C@H](CC(N)=O)NC1=O [PSM-0201, DOTA-Ttds-Thr-Ala-Phe-[Cys-Lys-Arg-Ala-Asn-Cys]-NH2] ({X3-Suc}-TAFCKRANC-NH2; disulfide 4-9) | IC50 [1, 5]: > 3160 nM; Kd [2, 6]: > 501 nM
< 200 | 12.6 to 126 | C[C@@H](O)[C@H](NC(=O)[C@@H](NC(=O)[C@@H]1CSSC[C@H](NC(=O)[C@H](Cc2ccccc2)NC(=O)C(C)(C)NC(=O)CC2CCN(C(=O)CN3CCN(CC(=O)O)CCN(CC(=O)O)CCN(CC(=O)O)CC3)CC2)C(=O)N[C@@H](CCCCN)C(=O)N[C@@H](CCCNC(=N)N)C(=O)NC(C)(C)C(=O)N[C@@H](CC(N)=O)C(=O)N1)C(C)(C)C)C(N)=O [PSM-0507, DOTA-Cmp-Aib-Pho-[Cys-Lys-Arg-Aib-Asn-Cys]-Tle-Thr-NH2] ({DOTA}-[X1][Aib]FCKR[Aib]NC[Tle]T-NH2; disulfide 4-9) | 
200 to 1260 | 12.6 to 126 | C[C@@H](O)[C@H](NC(=O)[C@@H](NC(=O)[C@@H]1CSSC[C@H](NC(=O)[C@H](Cc2ccc(Cl)cc2)NC(=O)C(C)(C)NC(=O)[C@@H](NC(=O)CC2CCN(C(=O)CN3CCN(CC(=O)O)CCN(CC(=O)O)CCN(CC(=O)O)CC3)CC2)[C@@H](C)O)C(=O)N(C)[C@@H](CCCCN)C(=O)N[C@@H](CCCNC(=N)N)C(=O)NC(C)(C)C(=O)N[C@@H](CC(N)=O)C(=O)N1)C(C)(C)C)C(N)=O [PSM-0548, DOTA-Cmp-Thr-Aib-Pcf-[Cys-Nmk-Arg-Aib-Asn-Cys]-Tle-Thr-NH2] ({DOTA}-[X1]T[Aib][Phe(4-Cl)]C[NMeK]R[Aib]NC[Tle]T-NH2; disulfide 5-10) | 
1260 to 3160 | > 501 | C[C@@H](O)[C@H](NC(=O)[C@@H](NC(=O)[C@@H]1CSSC[C@H](NC(=O)[C@H](Cc2c[nH]c3ccc(Cl)cc23)NC(=O)C(C)(C)NC(=O)[C@@H](NC(=O)CC2CCN(C(=O)CN3CCN(CC(=O)O)CCN(CC(=O)O)CCN(CC(=O)O)CC3)CC2)[C@@H](C)O)C(=O)N[C@@H](CCCCN)C(=O)N[C@@H](CCCNC(N)=O)C(=O)NC(C)(C)C(=O)N[C@@H](CC(N)=O)C(=O)N1)C(C)(C)C)C(N)=O [PSM-0406, DOTA-Cmp-Thr-Aib-5Clw-[Cys-Lys-Cit-Aib-Asn-Cys]-Tle-Thr-NH2] ({DOTA}-[X1]T[Aib][Trp(5-Cl)]CK[Cit][Aib]NC[Tle]T-NH2; disulfide 5-10) | 

SMILES | IC50 [1, 3] [nM] | Kd [2, 4] [nM] | further results
CC(=O)N[C@H](C(=O)NC(C)(C)C(=O)N[C@@H](Cc1ccccc1)C(=O)N[C@H]1CSSC[C@@H](C(=O)N[C@H](C(=O)N[C@H](C(=O)Nc2ccc(C(=O)N[C@H](CCCCNC(=O)CN3CCN(CC(=O)O)CCN(CC(=O)O)CCN(CC(=O)O)CC3)C(N)=O)cc2)[C@@H](C)O)C(C)(C)C)NC(=O)[C@H](CC(N)=O)NC(=O)C(C)(C)NC(=O)[C@H](CCCNC(=N)N)NC(=O)[C@H](CCCCN)NC1=O)[C@@H](C)O [PSM-0471, Ac-Thr-Aib-Phe-[Cys-Lys-Arg-Aib-Asn-Cys]-Tle-Thr-Pab-lys(DOTA)-NH2] (Ac-T[Aib]FCKR[Aib]NC[Tle]T[4Abz][dK](DOTA)-NH2; disulfide 4-9) | < 200 | < 12.6 | 
